Results on 25 compounds are retold here after patent US9822103B2, “Inhibitors of lysine methyl transferase” (priority 2013, dated 2017).

For the assay, the target named is recombinant EZH2-641F complex (EZH2 Y641F/EED/SUZ12/RbAp48/AEBP2) (Homo sapiens (Human), UniProt Q15910, Y641F). Description: EZH2 Histone Methyl Transferase Assay (scintillation proximity assay). The format is biochemical. The note with it: 350 nM histone peptide substrate, 500 nM 3H-SAM, 3 hours room temperature. Here is the method: EZH2 Histone Methyl Transferase Assay
Chain of recombinant EZH2-641F complex (EZH2 Y641F/EED/SUZ12/RbAp48/AEBP2) (Q15910 whole entry Y641F): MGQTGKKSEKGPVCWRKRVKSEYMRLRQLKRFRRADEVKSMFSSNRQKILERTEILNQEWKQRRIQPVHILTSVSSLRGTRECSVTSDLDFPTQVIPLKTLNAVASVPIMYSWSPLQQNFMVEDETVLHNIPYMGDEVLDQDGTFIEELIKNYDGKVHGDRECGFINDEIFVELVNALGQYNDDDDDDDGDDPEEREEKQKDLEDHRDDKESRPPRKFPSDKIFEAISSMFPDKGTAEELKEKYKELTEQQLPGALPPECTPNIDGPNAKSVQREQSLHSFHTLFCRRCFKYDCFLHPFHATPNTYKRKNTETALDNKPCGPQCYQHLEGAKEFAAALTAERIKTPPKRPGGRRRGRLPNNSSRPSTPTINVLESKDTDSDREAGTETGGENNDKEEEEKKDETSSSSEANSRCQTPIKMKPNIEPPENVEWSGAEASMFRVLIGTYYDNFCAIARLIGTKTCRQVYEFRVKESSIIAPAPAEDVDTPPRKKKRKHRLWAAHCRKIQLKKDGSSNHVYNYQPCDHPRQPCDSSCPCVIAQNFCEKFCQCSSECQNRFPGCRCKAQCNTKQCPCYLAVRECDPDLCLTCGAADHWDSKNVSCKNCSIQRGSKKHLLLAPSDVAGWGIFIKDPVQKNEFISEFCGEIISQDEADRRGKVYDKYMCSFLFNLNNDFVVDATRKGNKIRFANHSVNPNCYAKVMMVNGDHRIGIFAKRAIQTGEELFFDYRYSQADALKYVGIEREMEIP
Chain of recombinant EZH2-641F complex (EZH2 Y641F/EED/SUZ12/RbAp48/AEBP2) (O75530 whole entry partner): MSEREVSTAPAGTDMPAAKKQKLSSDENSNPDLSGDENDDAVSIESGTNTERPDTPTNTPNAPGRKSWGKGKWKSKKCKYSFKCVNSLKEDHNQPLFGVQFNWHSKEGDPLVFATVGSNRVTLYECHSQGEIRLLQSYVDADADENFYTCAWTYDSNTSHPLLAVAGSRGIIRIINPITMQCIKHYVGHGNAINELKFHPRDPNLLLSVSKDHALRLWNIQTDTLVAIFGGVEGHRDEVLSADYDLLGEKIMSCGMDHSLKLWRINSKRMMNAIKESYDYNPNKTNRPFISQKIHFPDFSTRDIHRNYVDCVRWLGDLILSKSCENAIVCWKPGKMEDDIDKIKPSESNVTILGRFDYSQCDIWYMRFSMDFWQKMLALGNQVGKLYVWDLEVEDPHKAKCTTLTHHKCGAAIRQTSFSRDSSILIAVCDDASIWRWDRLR
Chain of recombinant EZH2-641F complex (EZH2 Y641F/EED/SUZ12/RbAp48/AEBP2) (Q15022 whole entry partner): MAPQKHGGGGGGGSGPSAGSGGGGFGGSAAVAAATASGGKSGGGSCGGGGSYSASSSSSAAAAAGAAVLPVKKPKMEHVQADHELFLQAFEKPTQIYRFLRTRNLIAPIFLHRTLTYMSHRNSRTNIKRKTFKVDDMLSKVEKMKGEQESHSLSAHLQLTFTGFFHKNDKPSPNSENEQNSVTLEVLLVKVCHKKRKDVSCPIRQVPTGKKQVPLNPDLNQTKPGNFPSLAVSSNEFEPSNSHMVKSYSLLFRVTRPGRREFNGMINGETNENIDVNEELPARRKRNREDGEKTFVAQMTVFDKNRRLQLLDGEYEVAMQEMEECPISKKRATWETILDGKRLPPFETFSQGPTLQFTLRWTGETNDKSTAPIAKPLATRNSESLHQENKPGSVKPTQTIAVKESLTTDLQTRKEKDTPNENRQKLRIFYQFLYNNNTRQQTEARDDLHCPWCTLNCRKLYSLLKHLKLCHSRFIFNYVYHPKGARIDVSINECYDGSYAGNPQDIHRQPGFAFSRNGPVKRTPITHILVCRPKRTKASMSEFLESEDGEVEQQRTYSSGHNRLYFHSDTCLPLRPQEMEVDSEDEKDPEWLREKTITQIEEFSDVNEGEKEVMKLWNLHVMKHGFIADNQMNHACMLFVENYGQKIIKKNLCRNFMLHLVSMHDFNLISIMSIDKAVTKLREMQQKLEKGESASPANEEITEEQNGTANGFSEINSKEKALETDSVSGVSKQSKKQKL
Chain of recombinant EZH2-641F complex (EZH2 Y641F/EED/SUZ12/RbAp48/AEBP2) (Q09028 whole entry partner): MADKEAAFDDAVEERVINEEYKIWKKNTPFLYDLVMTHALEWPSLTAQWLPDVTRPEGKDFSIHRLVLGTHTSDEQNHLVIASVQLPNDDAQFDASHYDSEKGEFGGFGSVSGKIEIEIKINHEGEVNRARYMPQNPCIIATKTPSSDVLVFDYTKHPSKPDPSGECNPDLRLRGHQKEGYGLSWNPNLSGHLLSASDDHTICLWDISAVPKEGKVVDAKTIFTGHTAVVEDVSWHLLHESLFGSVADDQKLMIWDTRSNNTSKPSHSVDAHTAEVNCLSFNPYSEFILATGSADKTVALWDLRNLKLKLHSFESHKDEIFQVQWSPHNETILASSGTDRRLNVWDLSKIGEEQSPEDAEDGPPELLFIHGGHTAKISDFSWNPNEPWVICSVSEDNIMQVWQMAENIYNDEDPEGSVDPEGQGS
Chain of recombinant EZH2-641F complex (EZH2 Y641F/EED/SUZ12/RbAp48/AEBP2) (Q6ZN18 whole entry partner): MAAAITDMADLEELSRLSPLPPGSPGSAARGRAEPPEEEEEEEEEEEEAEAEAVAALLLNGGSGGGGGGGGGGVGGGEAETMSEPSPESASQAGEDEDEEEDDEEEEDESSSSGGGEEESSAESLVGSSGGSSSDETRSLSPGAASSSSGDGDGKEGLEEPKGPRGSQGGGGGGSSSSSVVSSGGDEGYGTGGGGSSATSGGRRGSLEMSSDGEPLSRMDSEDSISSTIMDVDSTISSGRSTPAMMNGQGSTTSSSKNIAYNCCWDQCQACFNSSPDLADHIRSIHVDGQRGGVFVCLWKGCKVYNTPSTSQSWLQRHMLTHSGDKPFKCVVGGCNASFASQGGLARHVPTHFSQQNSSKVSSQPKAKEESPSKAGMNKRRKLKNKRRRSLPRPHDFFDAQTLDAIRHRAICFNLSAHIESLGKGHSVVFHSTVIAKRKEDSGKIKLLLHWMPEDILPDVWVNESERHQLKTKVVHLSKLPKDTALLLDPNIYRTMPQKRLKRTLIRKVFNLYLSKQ
The effectiveness of compounds of the present invention as inhibitors of histone methyl transferases can be readily tested by assays known to those skilled in the art. For example, in vitro histone methyl transferase assays may be conducted with a relevant purified histone methyl transferase and an appropriate synthetic substrate to determine the inhibitory activity of the compounds. Assays for inhibition of EZH2 by the instant compounds were performed in 384-well plates with reaction mixtures containing 350 nM of histone peptide substrate (ATKAAR-K(Me2)-SAPATGGVKKPHRYRPG-GK(Biotin), 500 nM S-[methyl-^3H]adenosyl-L-methionine (55-85 Ci/mmol), 50 mM Tris-HCl (pH 9.0), 50 mM NaCl, 1 mM dithiothreitol, Tween-20 at 0.01% and fatty-acid free bovine serum albumin at 0.01%, and recombinant EZH2-641F complex (EZH2 Y641F/EED/SUZ12/RbAp48/AEBP2) at 5 nM (>98% purity, BPS Bioscience) or 15 nM (50% purity, in-house). Reaction mixtures were incubated at room temperature for 3 hours, and the reactions were terminated by 0.005% poly-L-lysine solution in 20 mM Tris-HCl (pH 7.5) and 150 mM NaCl. Reaction products were captured by binding to strepavidin-conjugated imaging beads. Incorporation of radioactive methyl group into the histone peptide substrate was determined in Leadseeker (GE Healthcare) by means of scintillation proximity assay. Dose response curves were generated to determine the concentration required to inhibit 50% of methyl transferase activity (EC50). Compounds were dissolved at 10 mM in dimethylsulfoxide (DMSO) and evaluated at eleven concentrations. EC50 values were derived by non-linear regression analysis.
Regarding `COc1ccc(-c2cc(C(=O)NCc3c(C)cc(C)[nH]c3=O)cc3c2OC2(CCCC2)C3)cn1` [Example 71, N-((4,6-Dimethyl-2-oxo-1,2-dihydropyridin-3-yl)methyl)-7-(6-methoxypyridin-3-yl)-3H-spiro[benzofuran-2,1′-cyclopentane]-5-carboxamide], the IC50 (as a rule, the concentration that gives 50% inhibition) was more than 1000 nM.
Then `Cc1cc(C)c(CNC(=O)c2cc(Br)c3c(c2)CC(C)CCO3)c(=O)[nH]1` (stereo not shown) [Example 45, 9-Bromo-N-((4,6-dimethyl-2-oxo-1,2-dihydropyridin-3-yl)methyl)-4-methyl-2,3,4,5-tetrahydrobenzo[b]oxepine-7-carboxamide], with more than 1000 nM; and `CCCc1cc(C)[nH]c(=O)c1CNC(=O)c1cc2c(c(-c3ccc(N4CCN(C(C)C)CC4)nc3)c1)OC(C)(C(C)C)C2` (stereo not shown) [Example 93, 2-Isopropyl-7-(6-(4-isopropylpiperazin-1-yl)pyridin-3-yl)-2-methyl-N-((6-methyl-2-oxo-4-propyl-1,2-dihydropyridin-3-yl)methyl)-2,3-dihydrobenzofuran-5-carboxamide], with less than 500 nM; and `Cc1cc(C)c(CNC(=O)c2cc(Br)c3c(c2)[C@@H]2CCC[C@]2(C)O3)c(=O)[nH]1` (racemic) [Example 64, rac-(3aS,8bS)-5-Bromo-N-((4,6-dimethyl-2-oxo-1,2-dihydropyridin-3-yl)methyl)-3a-methyl-2,3,3a,8b-tetrahydro-1H-cyclopenta[b]benzofuran-7-carboxamide], with more than 1000 nM.
For the compound `C=CC1(C)Cc2cc(C(=O)NCc3c(C)cc(C)[nH]c3=O)cc(Br)c2O1` (stereo not shown) [Example 57, 7-Bromo-N-((4,6-dimethyl-2-oxo-1,2-dihydropyridin-3-yl)methyl)-2-methyl-2-vinyl-2,3-dihydrobenzofuran-5-carboxamide], the IC50 is more than 1000 nM.
Then `Cc1cc(C)c(CNC(=O)c2cc3c(c(-c4ccc(CN5CCOCC5)cc4)c2)OC(C)CCC3)c(=O)[nH]1` (stereo not shown) [Example 50, N-((4,6-Dimethyl-2-oxo-1,2-dihydropyridin-3-yl)methyl)-2-methyl-9-(4-(morpholinomethyl)phenyl)-2,3,4,5-tetrahydrobenzo[b]oxepine-7-carboxamide], with more than 1000 nM; and `Cc1cc(C)c(CNC(=O)c2cc(-c3ccc(CN4CCOCC4)cc3)c3c(c2)C(C)CO3)c(=O)[nH]1` (stereo not shown) [Example 28, N-((4,6-Dimethyl-2-oxo-1,2-dihydropyridin-3-yl)methyl)-3-methyl-7-(4-(morpholinomethyl)phenyl)-2,3-dihydrobenzofuran-5-carboxamide], with more than 1000 nM; and `Cc1cc(C)c(CNC(=O)c2cc(-c3ccc(N4CCNCC4)nc3)c3c(c2)C(C)CO3)c(=O)[nH]1` (stereo not shown) [Example 29, N-((4,6-Dimethyl-2-oxo-1,2-dihydropyridin-3-yl)methyl)-3-methyl-7-(6-(piperazin-1-yl)pyridin-3-yl)-2,3-dihydrobenzofuran-5-carboxamide], with more than 1000 nM.
Then `CCC1(C)Cc2cc(C(=O)NCc3c(C)cc(C)[nH]c3=O)cc(-c3ccc(N4CCNCC4)nc3)c2O1` (stereo not shown) [Example 62, N-((4,6-Dimethyl-2-oxo-1,2-dihydropyridin-3-yl)methyl)-2-ethyl-2-methyl-7-(6-(piperazin-1-yl)pyridin-3-yl)-2,3-dihydrobenzofuran-5-carboxamide], with less than 500 nM; and `Cc1cc(C)c(CNC(=O)c2cc3c(c(-c4ccc(CN5CCCCC5)cc4)c2)OC2(CCCC2)C3)c(=O)[nH]1` [Example 74, N-((4,6-Dimethyl-2-oxo-1,2-dihydropyridin-3-yl)methyl)-7-(4-(piperidin-1-ylmethyl)phenyl)-3H-spiro[benzofuran-2,1′-cyclopentane]-5-carboxamide], with more than 1000 nM.
As to `Cc1cc(C)c(CNC(=O)c2cc(Br)c3c(c2)C2(CCCC2)CO3)c(=O)[nH]1` [Example 75, 7-Bromo-N-((4,6-dimethyl-2-oxo-1,2-dihydropyridin-3-yl)methyl)-2H-spiro[benzofuran-3,1′-cyclopentane]-5-carboxamide], the 50% inhibitory concentration (IC50) was more than 1000 nM.
As to `Cc1cc(C)c(CNC(=O)c2cc3c(c(-c4ccc(N5CCOCC5)nc4)c2)OCC3)c(=O)[nH]1` [Example 37, N-((4,6-Dimethyl-2-oxo-1,2-dihydropyridin-3-yl)methyl)-7-(6-morpholinopyridin-3-yl)-2,3-dihydrobenzofuran-5-carboxamide], the IC50 was more than 1000 nM.
Turning to `CCC1(C)Cc2cc(C(=O)NCc3c(C)cc(C)[nH]c3=O)cc(-c3ccc(OC)nc3)c2O1` (stereo not shown) [Example 61, N-((4,6-Dimethyl-2-oxo-1,2-dihydropyridin-3-yl)methyl)-2-ethyl-7-(6-methoxypyridin-3-yl)-2-methyl-2,3-dihydrobenzofuran-5-carboxamide], the IC50 is more than 1000 nM.
On to `Cc1cc(C)c(CNC(=O)c2cc(Br)c3c(c2)CCC(C)(C)O3)c(=O)[nH]1` [Example 42, 8-Bromo-N-((4,6-dimethyl-2-oxo-1,2-dihydropyridin-3-yl)methyl)-2,2-dimethylchroman-6-carboxamide], for which the IC50 is more than 1000 nM.
Take `Cc1cc(C)c(CNC(=O)c2cc3c(c(Br)c2C)O[C@@]2(C)CCC[C@@H]32)c(=O)[nH]1` (racemic) [Example 69, rac-(3aS,8bS)-5-Bromo-N-((4,6-dimethyl-2-oxo-1,2-dihydropyridin-3-yl)methyl)-3a,6-dimethyl-2,3,3a,8b-tetrahydro-1H-cyclopenta[b]benzofuran-7-carboxamide]: the IC50 was less than 500 nM.
Next, `Cc1cc(C)c(CNC(=O)c2cc(Br)c3c(c2)CC(C)O3)c(=O)[nH]1` (stereo not shown) [Example 31, 7-Bromo-N-((4,6-dimethyl-2-oxo-1,2-dihydropyridin-3-yl)methyl)-2-methyl-2,3-dihydrobenzofuran-5-carboxamide]: more than 1000 nM.
For the compound `Cc1cc(C)c(CNC(=O)c2cc(Br)c3c(c2)CC2(CCCC2)O3)c(=O)[nH]1` [Example 70, 7-Bromo-N-((4,6-dimethyl-2-oxo-1,2-dihydropyridin-3-yl)methyl)-3H-spiro[benzofuran-2,1′-cyclopentane]-5-carboxamide], the IC50 was more than 1000 nM.
For `Cc1cc(C)c(CNC(=O)c2cc(-c3ccc(N4CCNCC4)nc3)c3c(c2)[C@@H]2CCC[C@]2(C)O3)c(=O)[nH]1` (racemic) [Example 65, rac-(3aS,8bS)—N-((4,6-Dimethyl-2-oxo-1,2-dihydropyridin-3-yl)methyl)-3a-methyl-5-(6-(piperazin-1-yl)pyridin-3-yl)-2,3,3a,8b-tetrahydro-1H-cyclopenta[b]benzofuran-7-carboxamide], the IC50 was less than 500 nM.
Next, `Cc1cc(C)c(CNC(=O)c2cc3c(c(-c4ccc(N5CCNCC5)nc4)c2)OC(C)C3)c(=O)[nH]1` (stereo not shown) [Example 34, N-((4,6-Dimethyl-2-oxo-1,2-dihydropyridin-3-yl)methyl)-2-methyl-7-(6-(piperazin-1-yl)pyridin-3-yl)-2,3-dihydrobenzofuran-5-carboxamide]: more than 1000 nM.
Then `C=CC1(C)Cc2cc(C(=O)NCc3c(C)cc(C)[nH]c3=O)cc(-c3cnc(N4CCN(C(=O)OC(C)(C)C)CC4)nc3)c2O1` (stereo not shown) [Example 60, t-Butyl 4-(5-(5-(((4,6-dimethyl-2-oxo-1,2-dihydropyridin-3-yl)methyl)carbamoyl)-2-methyl-2-vinyl-2,3-dihydrobenzofuran-7-yl)pyrimidin-2-yl)piperazine-1-carboxylate], with more than 1000 nM; and `COc1ccc(-c2cc(C(=O)NCc3c(C)cc(C)[nH]c3=O)cc3c2OCC3)cn1` [Example 36, N-((4,6-Dimethyl-2-oxo-1,2-dihydropyridin-3-yl)methyl)-7-(6-methoxypyridin-3-yl)-2,3-dihydrobenzofuran-5-carboxamide], with more than 1000 nM; and `Cc1cc(C)c(CNC(=O)c2cc(/C=C/c3ccccc3)c3c(c2)CC(C)(C)O3)c(=O)[nH]1` [Example 15, (E)-N-((4,6-Dimethyl-2-oxo-1,2-dihydropyridin-3-yl)methyl)-2,2-dimethyl-7-styryl-2,3-dihydrobenzofuran-5-carboxamide], with more than 1000 nM.
Consider `Cc1cc(C)c(CNC(=O)c2cc3c(c(-c4ccc(C(=O)N5CCN(C)CC5)cc4)c2)OC(C)(C)C3)c(=O)[nH]1` [Example 16, N-((4,6-Dimethyl-2-oxo-1,2-dihydropyridin-3-yl)methyl)-2,2-dimethyl-7-(4-(4-methylpiperazine-1-carbonyl)phenyl)-2,3-dihydrobenzofuran-5-carboxamide], for which the IC50 was more than 1000 nM.
On to `C=CC1(C)Cc2cc(C(=O)NCc3c(C)cc(C)[nH]c3=O)cc(-c3ccc(CN4CCOCC4)cc3)c2O1` (stereo not shown) [Example 58, N-((4,6-Dimethyl-2-oxo-1,2-dihydropyridin-3-yl)methyl)-2-methyl-7-(4-(morpholinomethyl)phenyl)-2-vinyl-2,3-dihydrobenzofuran-5-carboxamide], for which the IC50 is more than 1000 nM.
Then `Cc1cc(C)c(CNC(=O)c2cc3c(c(-c4ccc(CN5CCOCC5)cc4)c2)OC(C)(C)C3)c(=O)[nH]1` [Example 10, N-((4,6-Dimethyl-2-oxo-1,2-dihydropyridin-3-yl)methyl)-2,2-dimethyl-7-(4-(morpholinomethyl)phenyl)-2,3-dihydrobenzofuran-5-carboxamide], with more than 1000 nM.
